Experimental data: paper PMC5234078, “Integrating mass spectrometry with MD simulations reveals the role of lipids in Na^+/H^+ antiporters” (Nature Communications, 2017)

Biological target: T1, NapA (wild-type NapA, MVV) (Thermus thermophilus, UniProt Q72IM4)
T1 construct: gene TT_C1108; homodimer, 82,450 Da; in C8E4
Experiment: native nESI-MS and tandem MS of protein-lipid complexes; ion mobility unfolding
Conditions: detergent C8E4, ammonium acetate pH 7.5; annular, non-specific phospholipid binding

T1 sequence (Q72IM4 entry or part of it): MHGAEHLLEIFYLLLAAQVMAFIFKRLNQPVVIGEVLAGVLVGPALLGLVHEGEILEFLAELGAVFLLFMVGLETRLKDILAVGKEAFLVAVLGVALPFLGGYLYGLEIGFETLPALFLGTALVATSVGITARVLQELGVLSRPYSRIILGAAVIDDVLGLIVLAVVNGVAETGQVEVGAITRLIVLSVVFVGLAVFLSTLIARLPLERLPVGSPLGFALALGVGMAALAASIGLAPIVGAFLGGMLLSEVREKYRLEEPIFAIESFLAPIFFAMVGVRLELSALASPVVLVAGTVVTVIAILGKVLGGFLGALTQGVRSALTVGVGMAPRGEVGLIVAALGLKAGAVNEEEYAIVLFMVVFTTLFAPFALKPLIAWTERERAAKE

Compound | native nESI-MS and tandem MS of protein-lipid complexes; ion mobility unfolding
CCCCCCCC/C=C\CCCCCCCC(=O)O[C@H](COC(=O)CCCCCCCCCCCCCCC)COP(=O)(O)OCCN [PE, 1-palmitoyl-2-oleoyl-glycerophospho-ethanolamine] | NapA with PE show a concentration-dependent increase in the number of lipid adducts
CCCCCCCC/C=C\CCCCCCCC(=O)O[C@H](COC(=O)CCCCCCCCCCCCCCC)COP(=O)(O)OCC(O)CO (some centres unmarked) [PG, 1-palmitoyl-2-oleoyl-phosphatidyl-glycerol] | Interactions with negatively charged PG lipids exhibit higher gas-phase stabilities than with zwitterionic PE
